Assay results from patent US20190365843A1, “Antimicrobial Activity of Bioactive Compounds and Their Derivatives” (priority 2018, published 2019).

Experiments:
Pleisiomonas sp. = test: Agar diffusion growth inhibition zone, Pleisiomonas sp.; type: cell-based, Pleisiomonas species; conditions: for inhibition of growth: Plesiomonas species
Method: (§1) Among the bacterial agents tested Gram positive and Gram negative bacterial groups represented by Staphylococcus aureus and Enterococcus species and pathogenic members of Enterobacteriaceae, Vibronaceae, Aeromonadaceae, Pseudomonadaceae were tested. Freshly sub-cultured bacterial strains were inoculated into peptone water and incubated for 4 hours at 37° C. and adjusted to a turbidity of 0.5 (Gram Negative Bacilli), 1 (Gram Positive Cocci) and 4 (Pus cells, GNB, & few Budding yeast cells) Mc Farland standards (10^8 CFU/ml) respectively.
(§2) The different bioactive compounds and their derivatives were dissolved and diluted with solvents (DMSO), number of subsequent dilutions was performed to obtain different concentrations of the bioactive compounds and their derivatives. (Working Concentrations).
(§3) Agar well diffusion method is widely used to evaluate the antimicrobial activity of plants or other synthetic products. The suspension (microbial inoculum) was used to inoculate into Muller Hinton Agar Petri plates by lawn culture. Well (diameter 6 mm) were punched in the agar by sterile borer and filled with 50 μl of dissolved extracts. Plates were incubated in incubator at 37° C. for 24 hours and measured the growth inhibition zone diameters in mm compared with that of control (DMSO) showing no growth.
(§4) The bioactive compounds were tested with desired concentrations in 6 mm filter paper discs (Whatman, no. 3) were impregnated with 10 μL of each of the different dilutions. The discs were allowed to remain at room temperature until complete diluent evaporation and kept under refrigeration until ready to be used. 10 μL of diluents used to products were used as control. Tests were performed by Agar disk-diffusion testing method, which is the official method used in many clinical microbiology laboratories for routine antimicrobial susceptibility testing.
(§5) Similar to the procedure used in Agar well diffusion method, the suspension (microbial inoculum) was used to inoculate into Muller Hinton Agar Petri plates by lawn culture. Then, filter paper discs (about 6 mm in diameter), containing the test compound at a desired concentration, were placed on the agar surface. The Petri dishes were incubated under suitable incubation conditions.
(§6) Bioactive compounds showing zone of inhibition beyond the size of 6 mm are considered to be having an anti-microbial activity.

Shigella sp. = test: Agar diffusion growth inhibition zone, Shigella sp.; type: cell-based, Shigella species; conditions: for zone of inhibition: Shigella sp., 6 mm = no activity
Aeromonas sp. = test: Agar diffusion growth inhibition zone, Aeromonas sp.; type: cell-based, Aeromonas species
Method: as §1, §2, §3, §4, §5, §6

Vibrio cholera = test: Agar diffusion growth inhibition zone, Vibrio cholera; type: cell-based, Vibrio cholerae; conditions: for zone of inhibition: Vibrio cholera, 6 mm = no activity
Method: (§7) Agar well diffusion method is widely used to evaluate the antimicrobial activity of plants or other synthetic products. The suspension (microbial inoculum) was used to inoculate into Muller Hinton Agar Petri plates by lawn culture. Well (diameter 6 mm) were punched in the agar by sterile borer and filled with 50 μl of dissolved extracts. Plates were incubated in incubator at 37° C. for 24 hours and measured the growth inhibition zone diameters in mm compared with that of control (DMSO) showing no growth. The antimicrobial agent diffuses in the agar medium and inhibits the growth of the microbial strain tested (Valgas et al., (2016) Methods for in vitro evaluating antimicrobial activity: A review. Journal of Pharmaceutical Analysis. 6(2):71-9).
(§8) Similar to the procedure used in Agar well diffusion method, the suspension (microbial inoculum) was used to inoculate into Muller Hinton Agar Petri plates by lawn culture. Then, filter paper discs (about 6 mm in diameter), containing the test compound at a desired concentration, were placed on the agar surface. The Petri dishes were incubated under suitable incubation conditions. Generally, antimicrobial agent diffuses into the agar and inhibits germination and growth of the test microorganism and then the diameters of inhibition growth zones are measured (Valgas et al., (2007) Screening methods to determine antibacterial activity of natural products. Brazilian Journal of Microbiology. 38:369-80; Balouiri M et al., (2016) Methods for in vitro evaluating antimicrobial activity: A review. Journal of Pharmaceutical Analysis. 6(2):71-9).

Enterococcus sp. = test: Agar diffusion growth inhibition zone, Enterococcus sp.; type: cell-based, Enterococcus species; conditions: 6 mm = no activity
Method: as §1, §2, §3, §4, §5, §6

Candida abicans = test: Agar diffusion growth inhibition zone, Candida abicans; type: cell-based, Candida albicans; conditions: 6 mm = no activity
Method: as §1, §2, §3, §4, §5, §6

Salmonella typhimurium = test: Agar diffusion growth inhibition zone, Salmonella typhimurium; type: cell-based; conditions: 6 mm = no activity
Method: as §1, §2, §3, §4, §5, §6

Klebsiella sp. = test: Agar diffusion growth inhibition zone, Klebsiella sp.; type: cell-based, Klebsiella species; conditions: 6 mm = no activity
Method: as §1, §2, §3, §4, §5, §6

S. aureus = test: Agar diffusion growth inhibition zone, S. aureus; type: cell-based, Staphylococcus aureus
Method: as §1, §2, §3, §4, §5, §6

Citrobacter sp. = test: Agar diffusion growth inhibition zone, Citrobacter sp.; type: cell-based, Citrobacter species; conditions: 6 mm = no activity
Method: as §1, §2, §3, §4, §5, §6

EAEC = test: Agar diffusion growth inhibition zone, EAEC; type: cell-based, Enteroaggregative E. coli; conditions: 6 mm = no activity
Method: as §1, §2, §3, §4, §5, §6

E. coli ATCC 25922 = test: Agar diffusion growth inhibition zone, E. coli ATCC 25922; type: cell-based; conditions: 6 mm = no activity; for zone of inhibition at 100 mg/mL: ATCC25922, 100 mg
Method: as §1, §2, §3, §4, §5, §6

Pseudomonas sp. = test: Agar diffusion growth inhibition zone, Pseudomonas sp.; type: cell-based, Pseudomonas species; conditions: for zone of inhibition: Pseudomonas sp., 6 mm = no activity
Method: as §7, §8

ETEC = test: Agar diffusion growth inhibition zone, ETEC; type: cell-based, Enterotoxigenic E. coli; conditions: for inhibition of growth / zone of inhibition: ETEC; for zone of inhibition: 6 mm = no activity
Method: as §7, §8

Proteus sp. = test: Agar diffusion growth inhibition zone, Proteus sp.; type: cell-based, Proteus species
Method: as §1, §2, §3, §4, §5, §6

[1] = Pleisiomonas sp., 100 mg, 6 mm = no activity
[2] = Aeromonas sp., 100 mg, 6 mm = no activity
[3] = Staphylococcus aureus, 100 mg, 6 mm = no activity
[4] = Pleisiomonas sp., 150 mg, 6 mm = no activity
[5] = Aeromonas sp., 150 mg, 6 mm = no activity
[6] = Proteus sp., 150 mg, 6 mm = no activity
[7] = Proteus species, at both concentrations of 100 mg and 150 mg

O=C(/C=C/c1ccc(O)cc1)COC(=O)/C=C/c1ccc(O)cc1 [compound 13, Bisdemethoxycalebin- A]
zone of inhibition at 100 mg/mL (Pleisiomonas sp.; [1]): 9 mm
inhibition of growth (Pleisiomonas sp.): inhibited
zone of inhibition at 100000 µg/disc (Shigella sp.; Shigella): 6 mm
zone of inhibition at 100 mg/mL (Aeromonas sp.; [2]): 6 mm
zone of inhibition at 100000 µg/disc (Vibrio cholera; Vibrio cholerae): 6 mm
zone of inhibition at 100 mg/mL (Enterococcus sp.; 100 mg): 6 mm
zone of inhibition at 100 mg/mL (Candida abicans; 100 mg): 6 mm
zone of inhibition at 100 mg/mL (Salmonella typhimurium; Salmonella enterica, 100 mg): 6 mm
zone of inhibition at 100 mg/mL (Klebsiella sp.; 100 mg): 6 mm
zone of inhibition at 100 mg/mL (S. aureus; [3]): 6 mm
zone of inhibition at 100 mg/mL (Citrobacter sp.; 100 mg): 6 mm
zone of inhibition at 100 mg/mL (EAEC; Escherichia coli, 100 mg): 6 mm
zone of inhibition at 100 mg/mL (E. coli ATCC 25922; Escherichia coli): 6 mm
zone of inhibition at 100000 µg/disc (Pseudomonas sp.; Pseudomonas): 6 mm

Demethoxycurcumin [compound 2]
zone of inhibition (Pleisiomonas sp.; [1]): 11 mm
zone of inhibition (Pleisiomonas sp.; [4]): 11 mm
inhibition of growth (Pleisiomonas sp.): inhibited
zone of inhibition (Shigella sp.; 100 mg): 6 mm
zone of inhibition (Shigella sp.; 150 mg): 6 mm
zone of inhibition (Aeromonas sp.; [2]): 9 mm
zone of inhibition (Aeromonas sp.; [5]): 9 mm
inhibition of growth (Aeromonas sp.; Aeromonas species): inhibited the growth
zone of inhibition (Vibrio cholera; 100 mg): 6 mm
zone of inhibition (Vibrio cholera; 150 mg): 6 mm
zone of inhibition (Enterococcus sp.; 100 mg): 6 mm
zone of inhibition (Enterococcus sp.; 150 mg): 6 mm
inhibition of growth (ETEC): significantly inhibited the growth
zone of inhibition (ETEC; 100 mg): 12 mm
zone of inhibition (ETEC; 150 mg): 12 mm
zone of inhibition (Candida abicans; 100 mg): 6 mm
zone of inhibition (Candida abicans; 150 mg): 6 mm
zone of inhibition (Salmonella typhimurium; 100 mg): 6 mm
zone of inhibition (Salmonella typhimurium; 150 mg): 6 mm
zone of inhibition (Klebsiella sp.; 100 mg): 6 mm
zone of inhibition (Klebsiella sp.; 150 mg): 6 mm
zone of inhibition (S. aureus; 100 mg, 6 mm = no activity): 11 mm
zone of inhibition (S. aureus; 150 mg, 6 mm = no activity): 11 mm
zone of inhibition (S. aureus; concentration not given): 11 mm
zone of inhibition (Citrobacter sp.; 100 mg): 6 mm
zone of inhibition (Citrobacter sp.; 150 mg): 6 mm
zone of inhibition (Proteus sp.; Proteus sp., 100 mg, 6 mm = no activity): 12 mm
zone of inhibition (Proteus sp.; [6]): 12 mm
zone of inhibition (Proteus sp.; [7]): 12 mm
zone of inhibition (EAEC; 100 mg): 6 mm
zone of inhibition (EAEC; 150 mg): 6 mm
zone of inhibition (E. coli ATCC 25922; 100 mg): 6 mm
zone of inhibition (E. coli ATCC 25922; 150 mg): 6 mm
zone of inhibition (Pseudomonas sp.; 100 mg): 6 mm
zone of inhibition (Pseudomonas sp.; 150 mg): 6 mm

O=C(/C=C/c1ccc(O)cc1)CC(=O)/C=C/c1ccc(O)cc1 [compound 3, Bis- demethoxycurcumin]
zone of inhibition at 100 mg/mL (Pleisiomonas sp.; [1]): 9 mm
zone of inhibition at 150 mg/mL (Pleisiomonas sp.; [4]): 9 mm
inhibition of growth (Pleisiomonas sp.): inhibited
zone of inhibition at 100000 µg/disc (Shigella sp.; Shigella): 6 mm
zone of inhibition at 150000 µg/disc (Shigella sp.; Shigella): 6 mm
zone of inhibition at 100 mg/mL (Aeromonas sp.; [2]): 6 mm
zone of inhibition at 150 mg/mL (Aeromonas sp.; [5]): 6 mm
zone of inhibition at 100000 µg/disc (Vibrio cholera; Vibrio cholerae): 6 mm
zone of inhibition at 150000 µg/disc (Vibrio cholera; Vibrio cholerae): 6 mm
zone of inhibition at 100 mg/mL (Enterococcus sp.; 100 mg): 6 mm
zone of inhibition at 150 mg/mL (Enterococcus sp.; 150 mg): 6 mm
inhibition of growth (ETEC): significantly inhibited the growth
zone of inhibition at 100000 µg/disc (ETEC; Escherichia coli): 9 mm
zone of inhibition at 150000 µg/disc (ETEC; Escherichia coli): 9 mm
zone of inhibition at 100 mg/mL (Candida abicans; 100 mg): 6 mm
zone of inhibition at 150 mg/mL (Candida abicans; 150 mg): 6 mm
zone of inhibition at 100 mg/mL (Salmonella typhimurium; Salmonella enterica, 100 mg): 6 mm
zone of inhibition at 150 mg/mL (Salmonella typhimurium; Salmonella enterica, 150 mg): 6 mm
zone of inhibition at 100 mg/mL (Klebsiella sp.; 100 mg): 6 mm
zone of inhibition at 150 mg/mL (Klebsiella sp.; 150 mg): 6 mm
zone of inhibition at 100 mg/mL (S. aureus; [3]): 6 mm
zone of inhibition at 150 mg/mL (S. aureus; Staphylococcus aureus, 150 mg, 6 mm = no activity): 6 mm
zone of inhibition at 100 mg/mL (Citrobacter sp.; 100 mg): 6 mm
zone of inhibition at 150 mg/mL (Citrobacter sp.; 150 mg): 6 mm
zone of inhibition at 150 mg/mL (Proteus sp.; [6]): 7 mm
zone of inhibition (Proteus sp.; [7]): 7 mm
zone of inhibition at 100 mg/mL (EAEC; Escherichia coli, 100 mg): 6 mm
zone of inhibition at 150 mg/mL (EAEC; Escherichia coli, 150 mg): 6 mm
zone of inhibition at 100 mg/mL (E. coli ATCC 25922; Escherichia coli): 6 mm
zone of inhibition at 150 mg/mL (E. coli ATCC 25922; Escherichia coli, ATCC25922, 150 mg): 6 mm
zone of inhibition at 100000 µg/disc (Pseudomonas sp.; Pseudomonas): 6 mm
zone of inhibition at 150000 µg/disc (Pseudomonas sp.; Pseudomonas): 6 mm
